Experimental findings from patent publication US11884708B2, “Stapled peptide inhibitors of nemo as potential anti-inflammatory and anti-cancer drugs” (INSTITUT PASTEUR, priority 2015, dated 2024) are described below.

Structures are written as SMILES. Where a SMILES comes first, the peptide text is derived from it. Bridges are numbered along the chain shown (N, C = ends). [ ]: non-standard residue; d: D form. The star is where a group is joined. BODIPYFLEthylmaleimide = Cc1cc(C)n2c1C=C1C=CC(CCC(=O)NCCN3C(=O)CC(*)C3=O)=[N+]1[B-]2(F)F; S5 = C=CCCC[C@](C)(N)C(=O)O

Data set [1] is described as follows: CD spectroscopy, α-helical content. The format is physicochemical. The following applies: 50 μM peptide, phosphate buffer pH 7.0, UBI in TFE taken as 100%.
Data set [2] is described as follows: Temperature-induced denaturation followed by CD. The note with it: 30 μM or 300 μM, ΔCp ≈ 0; for Tm: thermal denaturation by CD; for ΔH: van't Hoff enthalpy change at Tm. The format is physicochemical.
In another data set the target is CC2-LZ domain of NEMO (Mus musculus, UniProt O88522). Nature of the data set: Fluorescence anisotropy/polarization binding assay. The note with it: for Binding affinity (FP) at 10 μM: fixed peptide concentration 10 μM. For orientation: In fluorescence polarisation assays a small probe gives low polarisation when free and higher when bound to something large.
The next data set deals with NF-κB pathway (Mus musculus, UniProt O88522). Nature of the data set: NF-κB inhibition assay, LPS-stimulated 70Z3-C3 lacZ reporter cells. The data set is classed as cell-based. The following applies: 70Z3-C3 cells, 2 h peptide then LPS 4 h; N.I = No inhibition observed. An excerpt: The stable cell line of pre-B lymphocyte 70Z3-C3 cells expressing the lacZ reporter gene under the control of NF-κB was previously described. OCI-Ly3 (ABC-DLBCL, MALT1 dependent) and OCI-Ly7 (GCB-DLBCL). U2932 (ABC-DLBCL, MALT1 independent) were purchased from DSMZ (Deutsche Sammlung von Mikroorganismen and Zellkulturen) and HLY1 (ABC-DLBCL, MALT1 independent). Jurkat T-cells were obtained after transduction of lentiviruses containing a NF-κB reporter luciferase gene as previously described. All cell lines were grown in RPMI 1640 medium supplemented with 10% FBS, 10 μg/ml of streptomycin, 10 U/ml of penicillin and kept at 37° C., in a 5% CO2 humidified incubator. 0.05 mM of β-mercaptoethanol was added for 70Z3-C3. Primary and secondary antibodies were as following: polyclonal rabbit anti NF-κB p65, (sc-372, Santa Cruz Biotechnology, Inc) Alexa-488 coupled goat anti-rabbit IgG1 (Invitrogen) NF-κB inhibition assay was almost similar to those previously described in [1], except that luminescence data were monitored with a Centro XS^3, LB960 luminometer (Berthold technologies.), which is more sensitive. All experiments were performed in duplicates in 96-well plates. […] After 4 h incubation, cells were centrifuged 7 min at 400×g, at 4° C.

For the next data set, the system named is 70Z3-C3 cells. Put plainly: Cellular uptake of BODIPY-labeled peptides by FACS. The note with it: 10 μM labeled peptide, 2 h, 37° C. The format is cell-based. As for the experimental part: 2.2×10^5 cells in 100 μl of 70Z3-C3 were incubated with either 10 μM or with various doses of 10 μM, 5 μM and 1 μM of labeled-peptides at 37° C., 5% CO2. Similarly to fluorescence microscopy experiments, cells alone or incubated with BODIPY®-labeled BSA (ref) or BODIPY®-UBI devoid of the antennapedia cell penetrating sequence were used as negative control, whereas cells with BA-UBI [1] at 10 μM were used as positive control. After 2 h incubation, cells were washed 4 times with PBS at room temperature, and finally diluted 1:3 in PBS before subjected to FACS analysis. Along with the BODIPY® fluorophore the fluorescence intensity was recorded at 525±25 nm using the Gallios Flow cytometer (Beckman Coulter) to analyse each cells sample. Each internalization peptide was assessed by gating a population of 15,000 events and the data were analysed using Kaluza software version 1.2.
For determination of cellular uptake by flow cytometry, the BA-UBI-SAHND306-Q313 stapled peptide was first incubated with 2.2×10^5 70Z3-C3 cells in […] either at 4° C. or 37° C. for 2 h. Bodipy-labeled BSA, bodipy alone and bodipy-UBI were used as negative controls to verify the washing quality and efficient removal of any non-specific binding at the cell surface before FACS analysis. […] After 2 h of incubation, cells were washed four times with PBS at room temperature and diluted at 1:3 in PBS for FACS analysis. Samples were analyzed as previously described in the European patent (No: 15307137.8).

Sequence of CC2-LZ domain of NEMO (O88522 242-343 limits assumed): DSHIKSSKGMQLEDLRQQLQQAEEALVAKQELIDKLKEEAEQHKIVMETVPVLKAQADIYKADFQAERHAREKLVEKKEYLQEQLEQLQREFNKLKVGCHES
Sequence of NF-κB pathway (O88522 whole entry): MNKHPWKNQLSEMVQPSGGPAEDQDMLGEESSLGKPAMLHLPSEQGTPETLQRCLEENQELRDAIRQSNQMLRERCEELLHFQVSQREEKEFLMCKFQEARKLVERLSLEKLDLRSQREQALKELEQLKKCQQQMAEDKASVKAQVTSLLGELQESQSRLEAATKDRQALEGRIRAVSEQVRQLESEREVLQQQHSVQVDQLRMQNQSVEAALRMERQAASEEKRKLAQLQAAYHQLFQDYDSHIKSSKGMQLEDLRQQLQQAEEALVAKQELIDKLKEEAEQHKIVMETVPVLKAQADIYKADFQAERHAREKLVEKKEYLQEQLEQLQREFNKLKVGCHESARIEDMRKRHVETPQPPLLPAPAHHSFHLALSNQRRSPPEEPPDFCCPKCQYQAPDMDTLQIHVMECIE
Description for CC2-LZ domain of NEMO: Measurements were performed on a Tecan infinite F500 equipped with polarizing filters and using excitation and emission wavelengths at 485 nm and 535 nm, respectively. Anisotropy data were calculated using the Magellan software version 6.5. Prior experiments, the mouse CC2-LZ was extensively dialyzed in binding buffer containing 20 mM HEPES pH 7.4, 100 mM NaCl, and 0.05% P20 detergent (v/v). All experiments were performed in a 384 well plate (vol 25 μl) at room temperature. The BODIPY®-labeled peptide concentrations were fixed at 0.1 or 10 μM whereas the CC2-LZ concentration varied from 0 to 100 μM. Reference calibrated at 22 mP, was based on the fluorescence of the peptide alone. Each experimental binding curve was determined from at least 10 independent concentration points. The G-factor was calculated as previously described in Agou et al. [7], with a value of 0.75, which was observed constant within 5% upon all titrations. For analysis, the blank value corresponding to the value of buffer alone, was subtracted from all titration data.
All NEMO peptides were conjugated to an extra N-terminal cysteine with the fluorophore BODIPY® or FITC to determine their binding affinity for the CC2-LZ domain of NEMO (also called NOA or UBAN) by fluorescence polarization. For each peptide titration, various concentration of the target ranging from 0 to 100 μM and a fixed concentration of peptide at 0.1 or 10 μM were used at 25° C. […] For these reasons, all further titration experiments were performed with a fixed peptide concentration of 0.1 μM unless otherwise indicated.

For the compound `CC(=O)N[C@@H](CSC1CC(=O)N(CCNC(=O)CCC2=[N+]3C(=Cc4c(C)cc(C)n4[B-]3(F)F)C=C2)C1=O)C(=O)N[C@@H](CC(C)C)C(=O)N[C@@H](CCCCN)C(=O)N[C@@]1(C)CCCC=CCCC[C@@](C)(C(=O)N[C@@H](Cc2ccc(O)cc2)C(=O)N[C@@H](CCCCN)C(=O)N[C@@H](C)C(=O)N[C@@H](CCCNC(=N)N)C(=O)N[C@@H](Cc2ccccc2)C(=O)N[C@@H](CCC(N)=O)C(=O)N[C@@H](C)C(=O)N[C@@H](CCC(=O)O)C(=O)N[C@@H](CCCNC(=N)N)C(=O)N[C@@H](Cc2c[nH]cn2)C(=O)N[C@@H](C)C(=O)N[C@@H](CCCNC(=N)N)C(=O)N[C@@H](CCC(=O)O)C(=O)N[C@@H](CCCCN)C(N)=O)NC(=O)[C@H](CC(=O)O)NC(=O)[C@H](C)NC(=O)[C@H](CCC(N)=O)NC1=O` (stereo partly shown) [UBI-SAHN A303-I307] (Ac-C(BODIPYFLEthylmaleimide)LK[S5]QAD[S5]YKARFQAERHAREK-NH2; staple 4-8), the “α-helical content at 1° C.” value in data set [1] was determined as 70%. For the same compound, in data set [2], the ΔS is −24 cal. mol^−1.K^−1, the Tm was determined as 19 ± 0.3 C° and the ΔH was -6.9 kcal/mol. Also, the Kd at CC2-LZ domain of NEMO (fixed peptide concentration 0.1 μM, read-out: Binding affinity (FP) at 0.1 μM) is roughly 360 µM. Further, the “Binding affinity (FP) at 10 μM” value on CC2-LZ domain of NEMO is reported as “Very weak”. The “IC 50 NF-κB inhibition” value against NF-κB pathway is recorded as “N.I*”. In addition, in the data set on 70Z3-C3 cells, the “FACS peak median, first or only peak” value is given as 10.
With `CC[C@H](C)[C@@H]1NC(=O)[C@@](C)(NC(=O)[C@H](C)NC(=O)[C@H](CCC(N)=O)NC(=O)[C@H](C)NC(=O)[C@H](CCCCN)NC(=O)[C@H](CC(C)C)NC(=O)[C@H](CSC2CC(=O)N(CCNC(=O)CCC3=[N+]4C(=Cc5c(C)cc(C)n5[B-]4(F)F)C=C3)C2=O)NC(C)=O)CCCC=CCCC[C@@](C)(C(=O)N[C@@H](CCCNC(=N)N)C(=O)N[C@@H](Cc2ccccc2)C(=O)N[C@@H](CCC(N)=O)C(=O)N[C@@H](C)C(=O)N[C@@H](CCC(=O)O)C(=O)N[C@@H](CCCNC(=N)N)C(=O)N[C@@H](Cc2c[nH]cn2)C(=O)N[C@@H](C)C(=O)N[C@@H](CCCNC(=N)N)C(=O)N[C@@H](CCC(=O)O)C(=O)N[C@@H](CCCCN)C(N)=O)NC(=O)[C@H](CCCCN)NC(=O)[C@H](Cc2ccc(O)cc2)NC1=O` (stereo partly shown) [UBI-SAHN D306-A310] (Ac-C(BODIPYFLEthylmaleimide)LKAQA[S5]IYK[S5]RFQAERHAREK-NH2; staple 7-11), the “α-helical content at 1° C.” value in data set [1] came to 65%. Further, in data set [2], the ΔS is −20 cal. mol^−1.K^−1, the Tm was found to be 20 ± 0.3 C° and the ΔH was -5.79 kcal/mol. In addition, the “Binding affinity (FP) at 10 μM” value on CC2-LZ domain of NEMO was “Not detectable”. Further, the “IC 50 NF-κB inhibition” value on NF-κB pathway is recorded as “N.I*”. Besides, in the data set with 70Z3-C3 cells, the “FACS peak median, first or only peak” value turned out to be 1 and the “FACS peak median, second peak” value amounted to 35.
